ChEMBL document CHEMBL4680333, “Lipophilic tail modifications of 2-(hydroxymethyl)pyrrolidine scaffold reveal dual sphingosine kinase 1 and 2 inhibitors” (Bioorg Med Chem, 2021)

The molecules below were run against T1, Sphingosine kinase 2 (Homo sapiens, UniProt Q9NRA0).
T1 sequence (Q9NRA0 whole entry): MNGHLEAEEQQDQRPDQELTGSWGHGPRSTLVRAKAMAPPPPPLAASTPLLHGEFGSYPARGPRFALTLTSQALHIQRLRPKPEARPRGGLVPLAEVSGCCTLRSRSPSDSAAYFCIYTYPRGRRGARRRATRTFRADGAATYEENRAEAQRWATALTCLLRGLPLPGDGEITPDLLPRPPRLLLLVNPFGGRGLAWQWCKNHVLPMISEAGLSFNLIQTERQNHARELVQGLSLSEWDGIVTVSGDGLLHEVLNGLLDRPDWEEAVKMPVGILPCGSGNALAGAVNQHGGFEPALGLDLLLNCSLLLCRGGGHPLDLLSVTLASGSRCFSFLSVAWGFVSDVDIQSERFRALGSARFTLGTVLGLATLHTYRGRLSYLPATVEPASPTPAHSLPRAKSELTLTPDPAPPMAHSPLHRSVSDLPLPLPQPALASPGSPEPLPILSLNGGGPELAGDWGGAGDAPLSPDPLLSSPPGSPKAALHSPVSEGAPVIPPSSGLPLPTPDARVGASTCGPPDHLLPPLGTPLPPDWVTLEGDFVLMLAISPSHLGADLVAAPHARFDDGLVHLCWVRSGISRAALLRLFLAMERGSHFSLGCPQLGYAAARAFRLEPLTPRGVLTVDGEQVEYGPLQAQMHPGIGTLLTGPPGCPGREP
Description: Inhibition of recombinant human SphK2 assessed as decrease in [33P]SIP production using sphingosine as substrate in presence of [gamma33P]-ATP by scintillation counting method
With `CCCCCCCCOc1ccc(COc2ccc(-c3noc([C@@H]4CCCN4C(=N)N)n3)cc2C(F)(F)F)cc1` the Ki was 0.4 µM. `CCCCCCCCCCCCc1ccc(CN2CCC[C@@H]2CO)cc1` was tested, and the Ki was 0.951 µM.

What follows are molecules tested against T2, Sphingosine kinase 2 (Homo sapiens) (UniProt Q9NRA0) (assay: Inhibition of recombinant human SphK2 assessed as decrease in [33P]SIP production at 0.3 uM using sphingosine as substrate in presence of [gamma33P]-ATP by scintillation counting method relative to control).
T2 sequence (whole entry): T1 sequence (Q9NRA0 whole entry)
`CCCCCc1ccc(CCc2ccc(CN3CCC[C@@H]3CO)cc2)cc1` showed an inhibition of 13%. For `CCCCc1ccc(CCc2ccc(CN3CCC[C@@H]3CO)cc2)cc1`, the inhibition was 0%. For `OC[C@H]1CCCN1Cc1ccc(Oc2cccc(-c3cccc(C(F)(F)F)c3)c2)cc1`, the inhibition was 11%. `OC[C@H]1CCCN1Cc1ccc(Oc2ccccc2)cc1` gave an inhibition of 13%. `OC[C@H]1CCCN1Cc1ccc(Oc2ccc(-c3ccccc3)cc2)cc1` gave an inhibition of 9%. Molecule `CCCCCc1ccc(C#Cc2ccc(CN3CCC[C@@H]3CO)cc2)cc1` has an inhibition of 19%. `CCCCCCCCCCCc1ccc(CN2CCC[C@@H]2CO)cc1` gave an inhibition of 18%. `CCCCCCCCCc1ccc(CN2CCC[C@@H]2CO)cc1` showed an inhibition of 44%. `OC[C@H]1CCCN1Cc1ccc(Oc2cccc(-c3ccc(C(F)(F)F)cc3)c2)cc1` showed an inhibition of 1%. `CCCc1ccc(CCc2ccc(CN3CCC[C@@H]3CO)cc2)cc1` was tested, and the inhibition was 15%. `CC(C)(C)c1ccc(Oc2ccc(CN3CCC[C@@H]3CO)cc2)cc1` gave an inhibition of 22%. `OC[C@H]1CCCN1Cc1ccc(/C=C/c2cccc(C(F)(F)F)c2)cc1` showed an inhibition of 0%. Work on `CCCc1ccc(C#Cc2ccc(CN3CCC[C@@H]3CO)cc2)cc1` yielded an inhibition of 0%. `Cc1cc(/C=C/c2ccc(C(C)(C)C)cc2)ccc1CN1CCC[C@@H]1CO` was tested, and the inhibition was 3%. For `OC[C@H]1CCCN1Cc1ccc(Oc2ccc(-c3ccc(C(F)(F)F)cc3)cc2)cc1`, the inhibition was 0%. For `CCCCCCCCCCOc1ccc(CN2CCC[C@@H]2CO)cc1`, the inhibition was 11%. With `OC[C@H]1CCCN1Cc1ccc(Oc2cccc(-c3ccccc3)c2)cc1` the inhibition was 0%. `CCCCCCCCCCCCc1ccc(CN2CCC[C@@H]2CO)cc1` showed an inhibition of 37%. Work on `OC[C@H]1CCCN1Cc1ccc(Oc2ccc(-c3cccc(C(F)(F)F)c3)cc2)cc1` yielded an inhibition of 52%. Work on `CCCCCCCCCCCc1ccc(CN2CCC[C@@H]2COC(C)=O)cc1` yielded an inhibition of 2%. For `Cc1ccc(CCc2ccc(CN3CCC[C@@H]3CO)cc2)cc1`, the inhibition was 26%. With `CC(C)(C)c1cccc(Oc2ccc(CN3CCC[C@@H]3CO)cc2)c1` the inhibition was 11%. `OC[C@H]1CCCN1Cc1ccc(OCc2ccc(C(F)(F)F)cc2)cc1` was tested, and the inhibition was 0%. `CCCCCCCCCCc1ccc(CN2CCC[C@@H]2CO)cc1` was tested, and the inhibition was 54%. With `CCCCCCCCCOc1ccc(CN2CCC[C@@H]2CO)cc1` the inhibition was 44%. In the case of `COc1ccc(CCc2ccc(CN3CCC[C@@H]3CO)cc2)cc1`, the inhibition is reported as 3%. `CCCCCCCCOc1ccc(CN2CCC[C@@H]2CO)cc1` showed an inhibition of 1%. With `CCCCc1ccc(C#Cc2ccc(CN3CCC[C@@H]3CO)cc2)cc1` the inhibition was 25%. For `CCCCCCCOc1ccc(CN2CCC[C@@H]2CO)cc1`, the inhibition was 0%. Molecule `CCCCCCCCCCCCc1ccc(CN2CCC[C@@H]2CO)c(C)c1` has an inhibition of 38%.
